Source: patent US6362174B1, “Reduced dipeptide analogues as calcium channel antagonitsts” (Warner-Lambert Company, priority 1998, dated 2002)
Counter-ions that a name gives are not always drawn. Each block holds one compound with its values, some of them ahead of it.

Key:
N-type Ca2+ channel = biological target: T1, N-type Ca2+ channel (Homo sapiens, UniProt Q00975); assay: Measurement of N-type Ca2+ channel blocking potencies in IMR32 cells using the fluorescent Ca2+ indicator Indo-1; assay type: cell-based; settings: IMR-32 cells; for IC50: K+ depolarization, 5 μM nitrendipine to block L-type channels
T1 construct: host or cells: IMR-32 human neuroblastoma cells, differentiated with dibutyryl cAMP and bromodeoxyuridine
T1 sequence (Q00975 whole entry): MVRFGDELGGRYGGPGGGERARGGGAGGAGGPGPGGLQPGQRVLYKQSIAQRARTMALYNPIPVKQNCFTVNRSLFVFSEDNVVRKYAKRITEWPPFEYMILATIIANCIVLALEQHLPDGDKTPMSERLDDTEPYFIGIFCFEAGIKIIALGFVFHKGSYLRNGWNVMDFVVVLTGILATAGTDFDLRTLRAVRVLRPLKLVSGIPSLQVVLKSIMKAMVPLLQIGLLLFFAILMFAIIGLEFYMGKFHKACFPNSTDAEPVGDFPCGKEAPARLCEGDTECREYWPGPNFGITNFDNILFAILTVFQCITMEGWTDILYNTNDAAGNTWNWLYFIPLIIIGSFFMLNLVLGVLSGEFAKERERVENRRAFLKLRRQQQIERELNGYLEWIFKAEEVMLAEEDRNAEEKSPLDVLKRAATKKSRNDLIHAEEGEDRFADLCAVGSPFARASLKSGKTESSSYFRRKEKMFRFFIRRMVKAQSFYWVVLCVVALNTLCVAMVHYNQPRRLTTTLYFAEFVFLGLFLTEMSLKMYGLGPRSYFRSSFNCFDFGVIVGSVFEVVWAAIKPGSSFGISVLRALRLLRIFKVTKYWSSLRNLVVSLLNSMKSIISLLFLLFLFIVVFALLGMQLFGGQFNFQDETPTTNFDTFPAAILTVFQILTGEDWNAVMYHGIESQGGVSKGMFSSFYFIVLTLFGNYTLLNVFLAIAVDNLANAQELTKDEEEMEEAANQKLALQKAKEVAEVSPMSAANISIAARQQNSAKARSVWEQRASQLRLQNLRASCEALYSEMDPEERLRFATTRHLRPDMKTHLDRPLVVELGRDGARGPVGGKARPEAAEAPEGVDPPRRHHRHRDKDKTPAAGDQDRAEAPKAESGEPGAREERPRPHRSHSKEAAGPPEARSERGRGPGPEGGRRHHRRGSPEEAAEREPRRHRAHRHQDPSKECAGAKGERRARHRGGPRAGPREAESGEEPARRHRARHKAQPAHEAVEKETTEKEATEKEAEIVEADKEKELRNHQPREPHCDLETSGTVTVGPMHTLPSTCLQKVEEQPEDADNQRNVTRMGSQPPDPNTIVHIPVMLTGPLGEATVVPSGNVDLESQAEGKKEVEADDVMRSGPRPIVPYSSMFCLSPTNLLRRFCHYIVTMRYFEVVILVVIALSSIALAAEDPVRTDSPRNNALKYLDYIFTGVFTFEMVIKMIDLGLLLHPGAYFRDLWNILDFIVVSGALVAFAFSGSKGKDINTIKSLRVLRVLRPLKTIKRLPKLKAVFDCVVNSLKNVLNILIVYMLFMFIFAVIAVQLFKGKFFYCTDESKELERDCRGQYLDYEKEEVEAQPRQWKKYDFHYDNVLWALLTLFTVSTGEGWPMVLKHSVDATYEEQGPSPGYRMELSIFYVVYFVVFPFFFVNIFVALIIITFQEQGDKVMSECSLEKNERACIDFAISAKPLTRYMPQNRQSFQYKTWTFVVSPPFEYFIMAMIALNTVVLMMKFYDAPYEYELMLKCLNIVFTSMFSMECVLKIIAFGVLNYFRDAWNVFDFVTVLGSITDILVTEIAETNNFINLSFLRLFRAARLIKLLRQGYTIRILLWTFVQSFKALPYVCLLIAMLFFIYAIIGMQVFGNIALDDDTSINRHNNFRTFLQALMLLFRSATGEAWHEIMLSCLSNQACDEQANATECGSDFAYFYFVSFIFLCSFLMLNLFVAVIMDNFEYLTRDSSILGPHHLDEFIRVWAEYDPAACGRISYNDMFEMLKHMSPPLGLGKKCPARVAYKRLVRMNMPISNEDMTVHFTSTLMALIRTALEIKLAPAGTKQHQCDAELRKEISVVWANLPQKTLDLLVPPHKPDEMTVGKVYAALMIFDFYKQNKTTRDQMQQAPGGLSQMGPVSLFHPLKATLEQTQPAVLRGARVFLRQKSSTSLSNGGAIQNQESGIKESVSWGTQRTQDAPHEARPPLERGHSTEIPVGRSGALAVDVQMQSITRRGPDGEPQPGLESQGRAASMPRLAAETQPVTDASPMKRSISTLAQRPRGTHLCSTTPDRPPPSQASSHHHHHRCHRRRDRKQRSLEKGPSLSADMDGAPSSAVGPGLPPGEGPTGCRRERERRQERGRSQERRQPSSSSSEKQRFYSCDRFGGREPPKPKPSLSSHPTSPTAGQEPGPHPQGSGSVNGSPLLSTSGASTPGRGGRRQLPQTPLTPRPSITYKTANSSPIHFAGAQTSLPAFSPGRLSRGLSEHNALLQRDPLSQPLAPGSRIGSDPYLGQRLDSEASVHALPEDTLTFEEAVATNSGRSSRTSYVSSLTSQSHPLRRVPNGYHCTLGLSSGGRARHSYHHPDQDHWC
T1 sequence (Q02641 whole entry partner): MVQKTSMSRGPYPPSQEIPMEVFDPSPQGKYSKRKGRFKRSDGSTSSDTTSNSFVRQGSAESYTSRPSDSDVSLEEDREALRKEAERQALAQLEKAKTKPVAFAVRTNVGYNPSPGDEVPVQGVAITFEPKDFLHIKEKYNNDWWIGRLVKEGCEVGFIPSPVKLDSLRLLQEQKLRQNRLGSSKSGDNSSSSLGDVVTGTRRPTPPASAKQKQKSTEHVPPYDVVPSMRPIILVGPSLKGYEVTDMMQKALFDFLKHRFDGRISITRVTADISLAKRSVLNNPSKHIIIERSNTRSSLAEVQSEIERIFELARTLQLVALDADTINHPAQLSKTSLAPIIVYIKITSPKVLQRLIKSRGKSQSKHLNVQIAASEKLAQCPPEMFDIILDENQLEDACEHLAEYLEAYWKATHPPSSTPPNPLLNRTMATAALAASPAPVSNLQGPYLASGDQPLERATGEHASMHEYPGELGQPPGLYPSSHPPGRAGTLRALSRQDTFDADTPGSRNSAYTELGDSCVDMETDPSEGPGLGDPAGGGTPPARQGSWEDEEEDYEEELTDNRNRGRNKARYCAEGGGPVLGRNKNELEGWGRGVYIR
T1 sequence (P54289 25-956 partner limits assumed): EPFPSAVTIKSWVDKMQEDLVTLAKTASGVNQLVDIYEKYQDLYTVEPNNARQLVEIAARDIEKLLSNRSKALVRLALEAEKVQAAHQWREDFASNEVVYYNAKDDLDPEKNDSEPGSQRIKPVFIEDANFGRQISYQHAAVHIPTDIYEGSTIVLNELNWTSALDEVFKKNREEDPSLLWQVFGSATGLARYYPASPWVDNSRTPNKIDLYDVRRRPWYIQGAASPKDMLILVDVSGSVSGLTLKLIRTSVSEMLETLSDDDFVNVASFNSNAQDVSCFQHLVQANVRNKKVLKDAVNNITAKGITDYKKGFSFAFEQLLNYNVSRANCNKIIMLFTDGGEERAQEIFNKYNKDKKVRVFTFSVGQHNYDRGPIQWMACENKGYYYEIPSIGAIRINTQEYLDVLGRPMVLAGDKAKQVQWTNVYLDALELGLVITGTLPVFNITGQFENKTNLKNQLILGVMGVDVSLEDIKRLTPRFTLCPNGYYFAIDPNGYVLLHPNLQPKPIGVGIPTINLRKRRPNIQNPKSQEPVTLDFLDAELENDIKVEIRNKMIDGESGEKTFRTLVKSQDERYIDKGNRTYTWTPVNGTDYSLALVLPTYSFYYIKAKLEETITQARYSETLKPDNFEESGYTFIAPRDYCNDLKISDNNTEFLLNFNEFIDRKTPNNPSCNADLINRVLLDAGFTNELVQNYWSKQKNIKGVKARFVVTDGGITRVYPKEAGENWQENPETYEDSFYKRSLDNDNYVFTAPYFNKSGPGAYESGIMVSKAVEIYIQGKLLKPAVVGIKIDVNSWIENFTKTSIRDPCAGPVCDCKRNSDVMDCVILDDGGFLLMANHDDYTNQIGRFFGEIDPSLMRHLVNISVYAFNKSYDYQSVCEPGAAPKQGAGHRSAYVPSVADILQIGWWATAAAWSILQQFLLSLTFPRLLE
T1 sequence (P54289 957-1103 partner limits assumed): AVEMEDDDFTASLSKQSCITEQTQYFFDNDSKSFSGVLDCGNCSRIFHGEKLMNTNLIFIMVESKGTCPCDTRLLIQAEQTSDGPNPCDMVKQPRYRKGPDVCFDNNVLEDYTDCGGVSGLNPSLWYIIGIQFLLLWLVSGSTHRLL
Procedure: Measurement of N-type Ca^2+ Channel Blocking Potencies of Compounds in IMR32 Cells Using the Fluorescent Ca^2+ Indicator Indo-1
IMR-32 cells are a human tumoral cell line of neural origin. […] Calcium flux into these cells may be induced by stimulation with elevated potassium concentrations. The L-channel component of calcium flux may be blocked by adding 5 μM nitrendipine. The remaining component of calcium entry into the IMR-32 cells is due to calcium flux through N-type calcium channels. Intracellular calcium concentrations are measured using the fluorescent calcium indicator Indo-1. The effect of drug concentration on calcium uptake is studied.
The IMR-32 cell line was obtained from the American Type Culture Collection (Rockville, Md.). Cells were grown in Eagle's Minimum Essential Medium with Earle's salts supplemented with 10% fetal bovine serum, 2 mM L-Gln and antibiotic/antimicotic mixture (Gibco). At approximately 80% confluency, differentiation was induced by the addition of 1 mM dibutyryl cAMP and 2.5 μM bromodeoxyuridine to the medium. After 7 to 13 days of differentiation, cells were detached using 0.5 mM EDTA and loaded with 5 μM Indo-1 acetoxymethyl ester (Molecular Probes, Eugene, Oreg.) at […] for 45 minutes. Loaded cells were washed twice, resuspended (˜10^7 cells/mL) in assay buffer (10 mM HEPES/Tris pH 7.4 in Hank's Balanced Salt Solution without bicarbonate or phenol red containing 0.5% bovine serum albumin) and kept on ice until use. Fluorescence measurements were carried out in a Photon Technology International (PTI, South Brunswick, N.J.) Model RF-F3004 spectrofluorometer with dual emission monochromators using excitation at 350 nm and emission at 400 and 490 nm. The instrument was equipped with a thermostated cuvette holder with stirring capabilities as well as with a computer-controlled pump that allowed for reagent addition during measurement. Instrument control and data collection was done by PTI's OSCAR software running on an IBM compatible computer. Different concentrations of the test compounds (60 μL in dimethyl sulfoxide) were added to 5.94 mL of assay buffer containing approximately 3×10^6 loaded cells, and 5 μM Nitrendipine (in 30 μL EtOH) to block L-type Ca^2+ channels. Samples were incubated for 10 minutes at 30° C. and then aliquoted into three 10×10 mm disposable acrylic cuvettes. Emission signals at 400 and 490 nm were acquired from each cuvette at 30° C. for 50 seconds. At 20 seconds after the start of reading, cells were depolarized by the addition of 160 μL of stimulation solution (1M KCl, 68 mM CaCl2) to the cuvette via the computer-controlled pump. Ratio of dual emission signals (400 nm/490 nm), which is proportional to intracellular Ca^2+ concentration, was plotted against time, and the difference between maximal response after stimulation and basal value (before stimulation) was determined. Values obtained in this way were plotted as a function of drug concentration. IC50 values of test compounds were calculated by fitting a 4-parameter logistic function to the data using the least squares method.

DBA/2 mice = assay: Audiogenic seizure model in DBA/2 mice; assay type: in vivo; settings: for protection: 30 mg/kg, 15 minutes posttreatment time
Procedure: Audiogenic Seizure Model in DBA/2 Mice
Compounds of the present invention were dissolved in water using 10% (weight/volume) Emulphor (GAF Corp., Wayne, N.J.) surfactant. Substances were administered by intravenous injection into the retro-orbital venous sinus. All testing was performed 15 minutes or 45 minutes after drug injection. All the male mice, 3 to 4 weeks old, were obtained from Jackson Laboratories, Bar Harbour, Me. Immediately before anticonvulsant testing, mice were placed upon a wire mesh, 4 inches square suspended from a steel rod. […] Any mouse falling from the wire mesh was scored as ataxic.
Mice were placed into an enclosed acrylic plastic chamber (21 cm height, approximately 30 cm diameter) with a high-frequency speaker (4 cm diameter) in the center of the top lid. An audio signal generator (Protek model B-810) was used to produce a continuous sinusoidal tone that was swept linearly in frequency between 8 kHz and 16 kHz once each 10 msec. The average sound pressure level (SPL) during stimulation was approximately 100 dB at the floor of the chamber. Mice were placed within the chamber and allowed to acclimatize for 1 minute. DBA/2 mice in the vehicle-treated group responded to the sound stimulus (applied until tonic extension occurred, or for a maximum of 60 seconds) with a characteristic seizure sequence consisting of wild running followed by clonic seizures, and later by tonic extension, and finally by respiratory arrest and death in 80% or more of the mice. In vehicle-treated mice, the entire sequence of seizures to respiratory arrest lasts approximately 15 to 20 seconds.
The incidence of all the seizure phases in the drug-treated and vehicle-treated mice was recorded, and the occurrence of tonic seizures were used for calculating anticonvulsant ED values by probit analysis. Mice were used only once for testing at each time and dose point.

[1] = 10 mg/kg IV, 15 minutes post treatment, dihydrochloride
[2] = 10 mg/kg IV, 45 minutes post treatment, dihydrochloride
[3] = 10 mg/kg IV, 15 minutes post treatment
[4] = 30 mg/kg IV, 15 minutes post treatment
[5] = 30 mg/kg IV, 45 minutes post treatment

- IMR32 % @ 1 μM (N-type Ca2+ channel; 1 μM compound, 5 μM nitrendipine): 6% @ 1 μM
- IMR32 % @ 10 μM (N-type Ca2+ channel; 10 μM compound, 5 μM nitrendipine): 48% @ 10 μM
- melting point: 113 to 114 °C
Compound: CC(C)C[C@@H](C(=O)N[C@@H](Cc1ccc(OCc2ccccc2)cc1)CN1CCOCC1)N(C)C (relative stereo) [Example 3, [S-(R*,R*)]-2-Dimethylamino-4-methyl-pentanoic acid [2-(4-benzyloxy-phenyl)-1-morpholin-4-ylmethyl-ethyl]-amide]

- IC50 (N-type Ca2+ channel): 1.2 µM
Compound: CC(C)CC(N)CN[C@@H](Cc1ccc(OCc2ccccc2)cc1)C(=O)NC(C)(C)C (single isomer, unassigned) [Example 7, dihydrochloride]
- Number of Mice Protected from Tonic Convulsions / number of mice tested (DBA/2 mice; [1]): 2/5
- Number of Mice Protected from Tonic Convulsions / number of mice tested (DBA/2 mice; [2]): 1/5

- IC50 (N-type Ca2+ channel): 1.1 µM
Compound: CCN(CC)C[C@H](Cc1ccc(OCc2ccccc2)cc1)NC(=O)[C@H](CC(C)C)NC(=O)N1CCCCCC1 [Example 6, (S,S)-Azepane-1-carboxylic acid {1-[2-(4-benzyloxy-phenyl)-1-diethylaminomethyl-ethylcarbamoyl]-3-methyl-butyl}-amide]

- IC50 (N-type Ca2+ channel): 1.1 µM
Compound: CC(C)C[C@H](NC(=O)N1CCCCCC1)C(=O)N[C@H](CNC(C)(C)C)Cc1ccc(OCc2ccccc2)cc1 (relative stereo) [Example 5, [S-(R*,R*)]Azepane-1-carboxylic acid {1-[2-(4-benzyloxy-phenyl)-1-(tert-butylamino-methyl)-ethylcarbamoyl]-3-methyl-butyl}-amide trifloroacetate salt]

- IC50 (N-type Ca2+ channel): 1.2 µM
Compound: CC(C)C[C@H](NC(=O)N1CCCCCC1)C(=O)N[C@@H](Cc1ccc(OCc2ccccc2)cc1)CN1CCOCC1 (relative stereo) [Example 4, [S-(R*,R*)]-Azepane-1-carboxylic acid {1-[2-(4-benzyloxy-phenyl) -1-morpholin-4-ylmethyl-ethylcarbamoyl]-3-methyl-butyl}-amide]

Compound: CC(C)C[C@H](NC(=O)N1CCCCCC1)C(=O)N[C@H](COC(C)(C)C)Cc1ccc(OCc2ccccc2)cc1 (relative stereo) [Example 1, [S-(R*,R*)]-Azepane-1-carboxylic acid {1-[2-(4-benzyloxy-phenyl)-1-tert-butoxymethyl-ethylcarbamoyl]-3-methyl-butyl}-amide]
- IC50 (N-type Ca2+ channel): 0.21 µM
- Number of Mice Protected from Tonic Convulsions / number of mice tested (DBA/2 mice; [3]): 1/5
- Number of Mice Protected from Tonic Convulsions / number of mice tested (DBA/2 mice; [4]): 4/5
- Number of Mice Protected from Tonic Convulsions / number of mice tested (DBA/2 mice; [5]): 2/5
- protection (DBA/2 mice): 80%

- IC50 (N-type Ca2+ channel): 0.19 µM
Compound: CC(C)C[C@@H](CN[C@@H](Cc1ccc(OCc2ccccc2)cc1)C(=O)NC(C)(C)C)NC(=O)N1CCCCCC1 (relative stereo) [Example 2, [S-(R*,R*)]Azepane-1-carboxylic acid (1-{[2-(4-benzyloxy-phenyl)-1-tert-butylcarbamoyl-ethylamino]-methyl}-3-methyl-butyl)-amide dihydrochloride salt]
- Number of Mice Protected from Tonic Convulsions / number of mice tested (DBA/2 mice; [3]): 1/5
- Number of Mice Protected from Tonic Convulsions / number of mice tested (DBA/2 mice; [4]): 5/5
- Number of Mice Protected from Tonic Convulsions / number of mice tested (DBA/2 mice; [5]): 1/5
- protection (DBA/2 mice): 100%

- IC50 (N-type Ca2+ channel): 1 µM
Compound: CC(C)CC(N)CN[C@@H](Cc1ccc(OCc2ccccc2)cc1)C(=O)NC(C)(C)C (single isomer, unassigned) [Example 8, 2-(2-Amino-4-methyl-pentylamino)-3-(4-benzyloxy-phenyl)-N-tert-butyl-propionamide dihydrochloride]
- Number of Mice Protected from Tonic Convulsions / number of mice tested (DBA/2 mice; [1]): 0/5
- Number of Mice Protected from Tonic Convulsions / number of mice tested (DBA/2 mice; [2]): 0/5
